Laboratory results reported in publication PMC12281424, “A Rac-specific competitive inhibitor of guanine nucleotide binding reduces metastasis in triple-negative breast cancer” (Cell Reports Medicine, 2025).

Key:
[1] = target: LIMK1(h) (Homo sapiens, UniProt P53667); test: Kinase Profiler; type: biochemical
Description: (§1) The kinase profiler was performed by the company Eurofins (Discovery, Panlab and Cerep).

[2] = target: TAK1(h) (Homo sapiens, UniProt O43318); test: Kinase Profiler; type: biochemical
Description: (§2) Blood cell counts, kinase profiler, safety screen, bacterial cytotoxicity, Ames, micronucleus assays were performed by the company Eurofins (France). The kinase profiler was performed by the company Eurofins (Discovery, Panlab and Cerep).

[3] = target: EphB4(h) (Homo sapiens, UniProt P54760); test: Kinase Profiler; type: biochemical
EphB4(h), sequence (P54760 16-987): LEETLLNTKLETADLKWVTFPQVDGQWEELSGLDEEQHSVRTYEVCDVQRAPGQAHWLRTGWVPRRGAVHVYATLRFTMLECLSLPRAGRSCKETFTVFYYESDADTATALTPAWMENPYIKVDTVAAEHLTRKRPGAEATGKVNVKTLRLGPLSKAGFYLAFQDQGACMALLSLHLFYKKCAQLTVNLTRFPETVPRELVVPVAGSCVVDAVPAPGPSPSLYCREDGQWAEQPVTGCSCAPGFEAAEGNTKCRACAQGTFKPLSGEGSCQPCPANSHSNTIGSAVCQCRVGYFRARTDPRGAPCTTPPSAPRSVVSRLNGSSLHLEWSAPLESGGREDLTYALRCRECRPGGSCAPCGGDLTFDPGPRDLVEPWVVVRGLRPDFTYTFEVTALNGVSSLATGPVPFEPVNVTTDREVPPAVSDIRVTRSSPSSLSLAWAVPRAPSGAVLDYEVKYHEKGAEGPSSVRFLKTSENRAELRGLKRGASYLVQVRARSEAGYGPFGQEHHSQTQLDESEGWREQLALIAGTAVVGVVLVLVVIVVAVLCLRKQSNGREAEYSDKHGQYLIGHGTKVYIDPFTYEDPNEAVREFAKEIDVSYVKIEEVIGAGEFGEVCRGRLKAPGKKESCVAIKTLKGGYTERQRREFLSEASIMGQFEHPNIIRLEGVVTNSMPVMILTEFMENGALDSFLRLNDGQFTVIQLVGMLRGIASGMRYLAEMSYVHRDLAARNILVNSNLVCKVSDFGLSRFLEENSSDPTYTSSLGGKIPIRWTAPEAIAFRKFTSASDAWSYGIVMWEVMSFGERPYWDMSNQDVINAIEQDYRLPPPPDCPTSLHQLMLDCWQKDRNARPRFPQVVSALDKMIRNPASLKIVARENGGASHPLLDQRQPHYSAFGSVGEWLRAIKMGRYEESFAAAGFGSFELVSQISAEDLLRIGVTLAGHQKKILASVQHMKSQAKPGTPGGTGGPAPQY
Description: as §2

[4] = target: CaMKIδ(h) (Homo sapiens, UniProt Q8IU85); test: Kinase Profiler; type: biochemical
Description: as §1

[5] = target: TTBK2(h) (Homo sapiens, UniProt Q6IQ55); test: Kinase Profiler; type: biochemical
Description: as §1

[6] = target: Adrenergic α1B (Rattus norvegicus, UniProt P15823); test: Safety screen; type: binding
Description: (§3) Blood cell counts, kinase profiler, safety screen, bacterial cytotoxicity, Ames, micronucleus assays were performed by the company Eurofins (France).

[7] = target: PI3K (p110a(E542K)/p85a)(h) (Homo sapiens, UniProt P42336, E542K); test: Kinase Profiler; type: biochemical
PI3K (p110a(E542K)/p85a)(h), sequence (P42336 whole entry E542K): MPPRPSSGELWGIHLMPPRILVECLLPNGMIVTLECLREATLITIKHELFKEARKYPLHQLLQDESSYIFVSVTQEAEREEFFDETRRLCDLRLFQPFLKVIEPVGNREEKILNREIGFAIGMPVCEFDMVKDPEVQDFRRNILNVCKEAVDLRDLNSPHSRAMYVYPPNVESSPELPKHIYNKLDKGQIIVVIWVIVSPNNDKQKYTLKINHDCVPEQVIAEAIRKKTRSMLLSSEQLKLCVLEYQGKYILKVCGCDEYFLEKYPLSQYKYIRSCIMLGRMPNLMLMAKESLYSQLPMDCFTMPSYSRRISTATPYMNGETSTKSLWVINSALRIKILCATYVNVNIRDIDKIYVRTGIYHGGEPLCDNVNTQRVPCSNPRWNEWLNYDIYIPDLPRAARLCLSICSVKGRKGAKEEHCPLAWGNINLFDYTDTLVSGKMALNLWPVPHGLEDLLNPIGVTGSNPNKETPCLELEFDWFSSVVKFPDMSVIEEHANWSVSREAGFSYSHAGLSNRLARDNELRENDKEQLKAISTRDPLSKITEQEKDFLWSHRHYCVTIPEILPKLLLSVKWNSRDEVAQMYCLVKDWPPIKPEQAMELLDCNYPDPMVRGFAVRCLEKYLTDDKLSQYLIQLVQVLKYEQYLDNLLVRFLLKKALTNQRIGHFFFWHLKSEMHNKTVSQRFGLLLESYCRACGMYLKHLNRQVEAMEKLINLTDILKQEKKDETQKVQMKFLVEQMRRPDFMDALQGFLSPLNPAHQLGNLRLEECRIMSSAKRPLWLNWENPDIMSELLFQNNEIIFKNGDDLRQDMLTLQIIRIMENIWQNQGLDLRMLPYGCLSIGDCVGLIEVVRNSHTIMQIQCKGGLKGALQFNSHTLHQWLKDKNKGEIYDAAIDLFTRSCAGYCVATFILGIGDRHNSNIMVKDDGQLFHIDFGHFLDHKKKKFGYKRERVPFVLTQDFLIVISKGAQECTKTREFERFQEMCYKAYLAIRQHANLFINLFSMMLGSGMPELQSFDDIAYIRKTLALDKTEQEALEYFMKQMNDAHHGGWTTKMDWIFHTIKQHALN
PI3K (p110a(E542K)/p85a)(h), sequence (P27986 whole entry partner): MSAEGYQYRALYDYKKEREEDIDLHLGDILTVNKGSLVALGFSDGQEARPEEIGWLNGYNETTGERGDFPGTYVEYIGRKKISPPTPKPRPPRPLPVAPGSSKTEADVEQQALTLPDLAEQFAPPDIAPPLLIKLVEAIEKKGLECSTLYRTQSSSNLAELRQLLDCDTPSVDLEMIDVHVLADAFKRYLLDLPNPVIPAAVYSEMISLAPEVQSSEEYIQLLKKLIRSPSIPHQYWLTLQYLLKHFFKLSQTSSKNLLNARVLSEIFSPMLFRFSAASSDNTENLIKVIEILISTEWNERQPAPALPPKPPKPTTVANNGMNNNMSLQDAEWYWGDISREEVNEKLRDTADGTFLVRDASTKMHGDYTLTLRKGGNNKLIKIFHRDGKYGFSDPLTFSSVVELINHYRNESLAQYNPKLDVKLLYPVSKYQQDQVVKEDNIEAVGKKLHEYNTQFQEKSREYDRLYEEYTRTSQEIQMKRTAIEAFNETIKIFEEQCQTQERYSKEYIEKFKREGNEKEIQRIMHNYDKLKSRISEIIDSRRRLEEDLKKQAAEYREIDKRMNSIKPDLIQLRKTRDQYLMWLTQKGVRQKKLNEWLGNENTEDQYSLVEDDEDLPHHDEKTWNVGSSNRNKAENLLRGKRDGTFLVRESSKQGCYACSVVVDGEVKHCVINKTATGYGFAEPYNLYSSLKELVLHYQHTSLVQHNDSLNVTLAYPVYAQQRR
Description: as §1

[8] = target: Androgen (Testosterone) (Homo sapiens, UniProt P10275); test: Safety screen; type: binding
Description: as §2

[9] = target: MEK1(h) (Homo sapiens, UniProt Q02750); test: Kinase Profiler; type: biochemical
MEK1(h), sequence (Q02750 whole entry): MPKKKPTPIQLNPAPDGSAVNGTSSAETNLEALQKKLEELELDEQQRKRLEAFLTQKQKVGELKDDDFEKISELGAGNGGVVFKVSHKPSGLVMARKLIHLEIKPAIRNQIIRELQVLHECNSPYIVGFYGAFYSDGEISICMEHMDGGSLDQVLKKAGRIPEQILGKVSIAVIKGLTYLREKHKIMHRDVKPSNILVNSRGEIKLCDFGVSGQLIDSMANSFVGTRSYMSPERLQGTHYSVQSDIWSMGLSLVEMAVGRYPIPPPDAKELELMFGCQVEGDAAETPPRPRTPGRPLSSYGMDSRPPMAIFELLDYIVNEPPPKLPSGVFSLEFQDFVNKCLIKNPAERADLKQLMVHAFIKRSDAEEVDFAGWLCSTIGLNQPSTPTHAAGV
Description: as §1

[10] = target: Endothelin ETA (Homo sapiens, UniProt P25101); test: Safety screen; type: binding
Description: as §3

[11] = system: Phosphodiesterase PDE4; test: Safety screen; type: biochemical, human
Description: as §3

[12] = target: EGFR(L861Q)(h) (Homo sapiens, UniProt P00533, L861Q); test: Kinase Profiler; type: biochemical
Description: as §1

[13] = target: IR(h) (Homo sapiens, UniProt P06213); test: Kinase Profiler; type: biochemical
Description: as §2

[14] = target: DMPK(h) (Homo sapiens, UniProt Q09013); test: Kinase Profiler; type: biochemical
Description: as §2

[15] = target: TSSK3(h) (Homo sapiens, UniProt Q96PN8); test: Kinase Profiler; type: biochemical
Description: as §1

[16] = target: HPK1(h) (Homo sapiens, UniProt Q92918); test: Kinase Profiler; type: biochemical
HPK1(h), sequence (Q92918 whole entry): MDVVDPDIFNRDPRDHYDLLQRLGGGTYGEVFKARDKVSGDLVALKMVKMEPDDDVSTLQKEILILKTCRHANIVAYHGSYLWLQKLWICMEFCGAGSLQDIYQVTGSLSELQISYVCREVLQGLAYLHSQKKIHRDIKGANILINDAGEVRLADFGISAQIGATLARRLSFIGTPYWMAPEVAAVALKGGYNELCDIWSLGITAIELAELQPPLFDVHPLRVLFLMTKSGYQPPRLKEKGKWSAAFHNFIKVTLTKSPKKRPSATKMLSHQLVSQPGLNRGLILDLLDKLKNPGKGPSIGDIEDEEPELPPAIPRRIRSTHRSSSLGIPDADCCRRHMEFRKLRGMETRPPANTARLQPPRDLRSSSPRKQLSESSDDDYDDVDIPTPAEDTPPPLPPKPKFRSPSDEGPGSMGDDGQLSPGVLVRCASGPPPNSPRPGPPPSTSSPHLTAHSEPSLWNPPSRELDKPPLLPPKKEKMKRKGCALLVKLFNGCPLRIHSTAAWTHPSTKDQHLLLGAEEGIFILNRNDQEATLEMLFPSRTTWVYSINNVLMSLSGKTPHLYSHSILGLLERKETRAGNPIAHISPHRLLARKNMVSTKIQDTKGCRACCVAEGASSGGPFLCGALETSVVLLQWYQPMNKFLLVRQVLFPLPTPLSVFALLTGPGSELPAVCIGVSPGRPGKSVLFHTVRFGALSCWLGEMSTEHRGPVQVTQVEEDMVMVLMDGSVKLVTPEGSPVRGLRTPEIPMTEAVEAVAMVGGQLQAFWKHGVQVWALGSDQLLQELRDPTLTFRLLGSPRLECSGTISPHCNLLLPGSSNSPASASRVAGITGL
Description: as §1

[17] = target: SGK3(h) (Homo sapiens, UniProt Q96BR1); test: Kinase Profiler; type: biochemical
Description: as §1

[18] = target: Abl (Q252H) (h) (Homo sapiens, UniProt P00519, Q252H); test: Kinase Profiler; type: biochemical
Description: as §1

[19] = target: CaMKK1(h) (Homo sapiens, UniProt Q8N5S9); test: Kinase Profiler; type: biochemical
CaMKK1(h), sequence (Q8N5S9 whole entry): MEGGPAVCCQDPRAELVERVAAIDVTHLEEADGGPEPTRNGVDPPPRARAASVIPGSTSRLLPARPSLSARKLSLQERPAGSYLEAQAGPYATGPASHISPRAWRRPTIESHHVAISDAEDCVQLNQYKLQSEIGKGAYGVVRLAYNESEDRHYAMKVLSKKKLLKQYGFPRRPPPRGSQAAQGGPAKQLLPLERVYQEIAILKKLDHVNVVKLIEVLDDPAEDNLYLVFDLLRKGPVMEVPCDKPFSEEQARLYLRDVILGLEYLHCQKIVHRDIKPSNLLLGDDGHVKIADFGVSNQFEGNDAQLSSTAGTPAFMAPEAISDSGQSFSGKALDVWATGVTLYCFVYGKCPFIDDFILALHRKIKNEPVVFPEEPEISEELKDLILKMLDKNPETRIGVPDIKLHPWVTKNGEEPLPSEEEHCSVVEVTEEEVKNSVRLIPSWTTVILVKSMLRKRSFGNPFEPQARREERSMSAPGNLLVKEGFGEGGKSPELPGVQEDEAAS
Description: as §1

[20] = target: PDGFRα(D842V)(h) (Homo sapiens, UniProt P16234, D842V); test: Kinase Profiler; type: biochemical
Description: as §1

[21] = target: PhKγ2(h) (Homo sapiens, UniProt P15735); test: Kinase Profiler; type: biochemical
Description: as §2

[22] = target: MAP4K4(h) (Homo sapiens, UniProt O95819); test: Kinase Profiler; type: biochemical
Description: as §1

[23] = system: RAC1-GTP levels in MDA-MB-468 Luc cells; test: RAC-GTP immunofluorescence; type: cell-based
Description: Luciferase (Luc, green) was used to detect the cells. […] (C) Quantification of colony number of indicated cancer cell lines in the presence of A41 (10 μM) expressed as the percentage of control in the absence of A41. […] (D) Immunoblot analysis and corresponding quantification of AKT and P44/42 expression and phosphorylation (pAKT, p44/42) in MDA-MB-468 Luc cells in the absence (−) and presence of NSC23766 or A41 (1 h at 10^−5 M). […] (E) 3D invasion assay of MDA-MB-468 Luc and cancer-associated fibroblasts (CAFs) and corresponding quantification (scale bars: 200 μm).
After indicated treatments, cells were fixed with 4% paraformaldehyde and permeabilized in PBS 0.5% Triton X-100. To assess RAC1 activity, cells were then incubated with RAC-GTP antibody (26903, NewEast Biosciences, King of Prussia, Pa) (dilution 1/500) overnight at room temperature, followed by secondary Alexa 568-labeled anti-mouse antibody (dilution 1/1000). Cancer cells were detected with firefly luciferase antibody (ab21176, Abcam) (dilution 1/500) overnight at room temperature, followed by secondary Alexa 488-labeled anti-rabbit antibody (dilution 1/1000). To assess cytoskeleton organization, cells were incubated with Alexa Fluor 488 phalloidin (A12379, Invitrogen) to visualize F-actin. After staining, cells were mounted in Prolong gold antifade reagent with DAPI and images were captured by a fluorescence microscope.

[24] = target: MOK(h) (Homo sapiens, UniProt Q9UQ07); test: Kinase Profiler; type: biochemical
Description: as §1

[25] = target: PKAcβ(h) (Homo sapiens, UniProt P22694); test: Kinase Profiler; type: biochemical
Description: as §2

[26] = target: FGFR2(N549H)(h) (Homo sapiens, UniProt P21802, N549H); test: Kinase Profiler; type: biochemical
Description: as §1

[27] = system: GABAA, Flunitrazepam, Central; test: Safety screen; type: binding, rat
Description: as §3

[28] = target: Ret (V804L)(h) (Homo sapiens, UniProt P07949, V804L); test: Kinase Profiler; type: biochemical
Description: as §1

[29] = target: PKCδ(h) (Homo sapiens, UniProt Q05655); test: Kinase Profiler; type: biochemical
Description: as §1

[30] = target: Flt1(h) (Homo sapiens, UniProt P17948); test: Kinase Profiler; type: biochemical
Description: as §1

[31] = target: PASK(h) (Homo sapiens, UniProt Q96RG2); test: Kinase Profiler; type: biochemical
Description: as §1

[32] = target: CDK9/cyclin T1(h) (Homo sapiens, UniProt P50750); test: Kinase Profiler; type: biochemical
Description: as §2

[33] = target: CHK2(h) (Homo sapiens, UniProt O96017); test: Kinase Profiler; type: biochemical
Description: as §1

TAK1(h), sequence (O43318 1-303 limits assumed): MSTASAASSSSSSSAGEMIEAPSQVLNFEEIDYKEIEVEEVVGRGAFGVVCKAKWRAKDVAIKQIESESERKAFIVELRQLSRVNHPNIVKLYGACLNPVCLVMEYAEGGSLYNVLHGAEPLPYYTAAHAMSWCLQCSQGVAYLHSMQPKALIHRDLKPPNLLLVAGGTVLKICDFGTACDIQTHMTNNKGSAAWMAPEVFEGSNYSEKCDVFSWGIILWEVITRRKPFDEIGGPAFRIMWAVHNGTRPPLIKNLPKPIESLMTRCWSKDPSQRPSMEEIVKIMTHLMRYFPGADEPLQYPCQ

COc1ccc(OC)c(NS(=O)(=O)c2ccc(NC(=O)CCSc3ccc(C)cc3)cc2)c1 [Compound A41]
Activity(%) [1]: 113%
Activity(%) [2]: 107%
Activity(%) [3]: 112%
Activity(%) [4]: 94%
Activity(%) [5]: 106%
% inh. [6]: 41%
Activity(%) [7]: 105%
% inh. [8]: 10%
Activity(%) [9]: 97%
% inh. [10]: -8%
% inh. [11]: 4%
Activity(%) [12]: 107%
Activity(%) [13]: 137%
Activity(%) [14]: 98%
Activity(%) [15]: 104%
Activity(%) [16]: 98%
Activity(%) [17]: 106%
Activity(%) [18]: 105%
Activity(%) [19]: 95%
Activity(%) [20]: 112%
Activity(%) [21]: 98%
Activity(%) [22]: 107%
decrease of active RAC1-GTP levels ([23]; 10^-5 M, 1 h): more than 50%
IC50 ([23]; dose-response curve, Figure 5A): 810 nM
Activity(%) [24]: 90%
Activity(%) [25]: 116%
Activity(%) [26]: 105%
% inh. [27]: 15%
Activity(%) [28]: 93%
Activity(%) [29]: 110%
Activity(%) [30]: 103%
Activity(%) [31]: 97%
Activity(%) [32]: 92%
Activity(%) [33]: 111%
